≈ marks a conversion by molar mass, not a printed value. Read-outs that look alike come from different tables or passages of the source.
What was measured:
[1] = test system: SW480 cells; assay: Growth inhibition assay (MTS or sulforhodamine B), SW480; type: cell-based; conditions: Homo sapiens
[2] = test system: 293; assay: Sulforhodamine B (SRB) assay, 293; type: cell-based; conditions: Homo sapiens, HEK293; Renal, 293, 48 hours
Method: Growth inhibitory effect of Compound A on the cells listed below was measured by the sulforhodamine B assay. SW480 cells in 100 μl media were plated in each well of 96-well plate and allowed to attach for 24 hours. Compound A was added to the wells to produce the desired final concentrations, and the plates were incubated at 37° C. for 48 hours. The cells were then fixed by gentle addition of 100 μl of cold (4° C.) 10% trichloroacetic acid to each well, followed by incubation at 4° C. for 1 hour. Plates were washed with deionized water five times and allowed to air dry. The cells were then stained by addition of 100 μl SRB solution (0.4% SRB(w/v) in 1% acetic acid (v/v)) to wells for 15 min. After staining, the plates were quickly washed five times with 1% acetic acid to remove any unbound dye, and allowed to air dry. Bound dye was solubilized with 10 mmol/L Tris base (pH 10.5) prior to reading the plates. The optical density (OD) was read on a plate reader at a wavelength of 515 nm with Molecular Device. Inhibition of growth was expressed as relative viability (% of control) and GI50 was calculated from concentration-response curves after log/probit transformation.
The values in Table 6 are in μg/ml.

[3] = test system: surviving protein; assay: Western blot analysis of survivin protein; type: cell-based; conditions: 5 μM
[4] = physchem; conditions: 37 °C, thermodynamic from solid
[5] = test system: survivin; assay: Effects of compounds on survivin expression (Table 9); type: cell-based; conditions: for inhibition at 25 µM: Table 9, 25 uM; for inhibition at 5 µM: read-out: Survivin % inhibition 5 uM, Table 9, 5 uM
Description: A plasmid containing luciferase under the control of surviving promoter was constructed and transfected into wild type, CBP+/−, or p300+/−3T3 cells.
(§1) The effects of various compounds having general formula (I) on surviving and TCF4 expression were characterized.

[6] = test system: TCF4; assay: Effects of compounds on TCF4 expression (Table 9); type: cell-based
Description: as §1

[7] = test system: HCT116 cells; assay: Growth inhibition assay (MTS or sulforhodamine B), HCT116; type: cell-based; conditions: Homo sapiens, HCT-116, 48 h, Table 5, MTS or sulforhodamine B assay, HCT116, 48 hours
[8] = test system: min mouse; assay: Min mouse model (polyp number); type: in vivo; conditions: for % Inhibition vs. VH: total polyp number
Method: Selected compounds of the present invention (Compound B and Compound C) were evaluated in the min mouse model to evaluate their efficacy as anti-cancer agents.
The min mouse model is a widely used model to test for this type of efficacy. The numbers of polyp formed in small intestine and colon of these mice after various treatments were measured (Table 7).

[9] = test system: TCF4/β-catenin transcriptional pathway; assay: Reporter gene assay (TOPFlash luciferase) in SW480 cells; type: cell-based; conditions: Homo sapiens
Method: SW480 cells were transfected with the usage of Superfect™ transfect reagent (Qiagen, 301307). Cells were trypsinized briefly 1 day before transfection and plated on 6 well plate (5×10^5 cells/well) so that they were 50-80% confluent on the day of transfection.
Four microgram (TOPFlash) and one microgram (pRL-null) of DNAs were diluted in 150 μl of serum-free medium, and 30 μl of Superfect™ transfect reagent was added. The DNA-Superfect mixture was incubated at room temperature for 15 min, and then, 1 ml of 10% FBS DMEM was added to this complex for an additional 3 hours of incubation. While complexes were forming, cells were washed with PBS twice without antibiotics.
The DNA-Superfect™ transfect reagent complexes were applied to the cells before incubating at 37° C. at 5% CO2 for 3 hours. After incubation, recovery medium with 10% FBS was added to bring the final volume to 1.18 ml. After 3 hours incubation, the cells were harvested and reseeded to 96 well plate (3×10^4 cells/well). After overnight incubation at 37° C. at 5% CO2, the cells were treated with Compound A for 24 hours. Finally, the activity was checked by means of luciferase assay (Promega, E1960).

[10] = test system: survivin promoter; assay: Survivin luciferase reporter in SW480 cells; type: cell-based; conditions: Homo sapiens, SW480, read-out: RGA, Survivin IC50, uM, Table 10, prodrug compounds, reporter gene assay survivin
[11] = SW480, 48 h, Table 5, MTS or sulforhodamine B assay, SW480, 48 hours, read-out: Growth Inhibition (GI50, uM) SW480
[12] = pH 1.2, simulated gastric fluid, Solubility JP1 (pH 1.2), 0 hr
[13] = pH 1.2, simulated gastric fluid, Solubility JP1 (pH 1.2), 2 hr
[14] = pH 1.2, simulated gastric fluid, Solubility JP1 (pH 1.2), 20 hr
[15] = pH 6.8, fassgf or other biorelevant, Solubility JP2 (pH 6.8), 0 hr
[16] = pH 6.8, fassgf or other biorelevant, Solubility JP2 (pH 6.8), 2 hr
[17] = pH 6.8, fassgf or other biorelevant, Solubility JP2 (pH 6.8), 20 hr
[18] = SW480, Table 4, selected library compounds, Reporter gene assay as described in Example 6, read-out: IC50

Row | SMILES | solubility [4, 12] | solubility [4, 13] | solubility [4, 14] | solubility [4, 15] | solubility [4, 16] | solubility [4, 17] | also measured
1 | CCOP(=O)(CC(=O)Nc1ccc(C[C@H]2C(=O)N(Cc3cccc4ccccc34)C[C@H]3N2C(=O)CN(C)N3C(=O)NCc2ccccc2)cc1)OCC [Compound 59] | – | – | – | – | – | – | GI50 [1, 11]: > 50 µM
2 | O=c1[nH]cc(F)c(=O)[nH]1 [Compound 5-FU, 5-fluorouracil, reference compound] | – | – | – | – | – | – | GI50 [2]: 2.02 µg/mL (≈ 15.5 µM); amount of survivin protein (Western blot) [3]: reduced the amount of the surviving protein
3 | CN1CC(=O)N2[C@@H](Cc3ccc(OP(=O)([O-])[O-])cc3)C(=O)N(Cc3cccc4cccnc34)C[C@@H]2N1C(=O)NCc1ccccc1.[Na+].[Na+] [Compound 9] | 2250 µg/mL | 2280 µg/mL | 2400 µg/mL | 2320 µg/mL | 2350 µg/mL | 2420 µg/mL | –
4 | C=CCN1CC(=O)N2[C@@H](Cc3ccc(OP(=O)([O-])[O-])cc3)C(=O)N(Cc3cccc4cccnc34)C[C@@H]2N1C(=O)NCc1ccccc1.[Na+].[Na+] [Compound 6] | 1450 µg/mL | 1720 µg/mL | 1790 µg/mL | 1830 µg/mL | 1860 µg/mL | 1870 µg/mL | –
5 | CN1CC(=O)N2[C@@H](CN(Cc3cccc4ccccc34)C(=O)[C@@H]2Cc2ccc(O)cc2)N1C(=O)NCc1ccccc1 | – | – | – | – | – | – | inhibition at 25 µM [5]: 99%; inhibition at 5 µM [5]: 100%; IC50 [6]: ~2 µM
6 | C=CCN1CC(=O)N2[C@@H](Cc3ccc(O)cc3)C(=O)N(Cc3ccc(F)cc3F)C[C@@H]2N1C(=O)NCc1ccccc1 [Compound 115] | – | – | – | – | – | – | GI50 [1, 11]: 2 ± 0.7 µM; GI50 [7]: 1.1 ± 0.04 µM
7 | CN1CC(=O)N2[C@@H](Cc3ccc(O)cc3)C(=O)N(Cc3cccc4cccnc34)C[C@@H]2N1C(=O)NCc1ccccc1 [Compound B] | – | – | – | – | – | – | Polyp Number (Mean ± S.D.) Colon ([8]; 300 mpk): 1.4 ± 0.9; Polyp Number (Mean ± S.D.) Small Intestine ([8]; 300 mpk): 45.2 ± 22.1; Polyp Number (Mean ± S.D.) Total ([8]; 300 mpk): 46.8 ± 17.0; % Inhibition vs. VH ([8]; 300 mpk): 31%
8 | CN1CC(=O)N2[C@@H](Cc3ccc(O)cc3)C(=O)N(Cc3cccc4ccccc34)C[C@@H]2N1C(=O)NCc1ccccc1 [Compound 1] | – | – | – | – | – | – | GI50 [1, 11]: 2.28 µM; GI50 [7]: 1.78 µM
9 | C=CCN1CC(=O)N2[C@@H](Cc3ccc(OP(=O)([O-])[O-])cc3)C(=O)N(Cc3ccc(Cl)c4cccnc34)C[C@@H]2N1C(=O)NCc1ccccc1.[Na+].[Na+] [Compound 7] | 309 µg/mL | 446 µg/mL | 521 µg/mL | 2140 µg/mL | 2220 µg/mL | 2240 µg/mL | –
10 | CN1CC(=O)N2[C@@H](CN(Cc3c(Cl)cc(Cl)c4cccnc34)C(=O)[C@@H]2Cc2ccc(O)cc2)N1C(=O)NCc1ccccc1 | – | – | – | – | – | – | inhibition at 25 µM [5]: 58%; inhibition at 5 µM [5]: 6%; IC50 [6]: 11.2 ± 1.5 µM
11 | CN1CC(=O)N2[C@@H](Cc3ccc(O)cc3)C(=O)N(Cc3ccc(F)cc3F)C[C@@H]2N1C(=O)NCc1ccccc1 [Compound 13] | – | – | – | – | – | – | GI50 [1, 11]: 1.65 µM; GI50 [7]: 1.59 µM
12 | CN1CC(=O)N2[C@@H](Cc3ccc(O)cc3)CN(Cc3ccc(F)cc3F)C[C@@H]2N1C(=O)NCc1ccccc1 [Compound 77] | – | – | – | – | – | – | GI50 [1, 11]: 26.5 ± 6.5 µM; GI50 [7]: 10.7 ± 0.8 µM
13 | C=CCN1CC(=O)N2[C@@H](Cc3ccc(O)cc3)C(=O)N(Cc3ccc(F)cc3F)[C@@H](C)[C@@H]2N1C(=O)NCc1ccccc1 [Compound 147] | – | – | – | – | – | – | GI50 [1, 11]: 6.1 ± 0.4 µM; GI50 [7]: 5.5 ± 0.4 µM
14 | CN(C)c1cc(CN2C[C@H]3N(C(=O)CN(C)N3C(=O)NCc3ccccc3)[C@@H](Cc3ccc(OP(=O)([O-])[O-])cc3)C2=O)ccc1Cl.[Na+].[Na+] [Compound 11] | 2010 µg/mL | 2000 µg/mL | 2000 µg/mL | 1640 µg/mL | 1650 µg/mL | 1650 µg/mL | –
15 | CN(C)c1cc(F)ccc1CN1C[C@H]2N(C(=O)CN(C)N2C(=O)NCc2ccccc2)[C@@H](Cc2ccc(OP(=O)(O)O)cc2)C1=O [Compound 3] | 1880 µg/mL (≈ 2870 µM) | 1970 µg/mL (≈ 3010 µM) | 2040 µg/mL (≈ 3110 µM) | 1320 µg/mL (≈ 2020 µM) | 1900 µg/mL (≈ 2910 µM) | 2000 µg/mL (≈ 3060 µM) | –
16 | CN1CC(=O)N2[C@@H](Cc3ccc(OP(=O)(O)O)cc3)C(=O)N(Cc3cccc4ccccc34)C[C@@H]2N1C(=O)NCc1ccccc1 [Compound 1] | – | – | – | – | – | – | GI50 ([1]; SW480, Table 10, prodrug compounds, SW480, read-out: MTS, SW480 (uM) GI50): 2 µM; IC50 ([9]; SW480, Table 10, prodrug compounds, reporter gene assay TopFlash, read-out: RGA, TopF IC50): 4.2 µM; IC50 [10]: 6.4 µM; solubility ([4]; pH 1.2, simulated gastric fluid, Solubility JP1 (pH 1.2)): 60.1 µg/mL (≈ 93.4 µM); solubility ([4]; pH 6.8, fassgf or other biorelevant, Solubility JP2 (pH 6.8)): 1800 µg/mL (≈ 2790 µM)
17 | CN1CC(=O)N2[C@@H](Cc3ccc(OP(=O)([O-])[O-])cc3)C(=O)N(Cc3ccc(F)cc3F)C[C@@H]2N1C(=O)NCc1ccccc1.[Na+].[Na+] [Compound 4] | 554 µg/mL | 646 µg/mL | 756 µg/mL | 1980 µg/mL | 2010 µg/mL | 2030 µg/mL | –
18 | CN1CC(=O)N2[C@@H](Cc3ccc(O)cc3)C(=O)N(Cc3cccc4c3cnn4CCN3CCOCC3)C[C@@H]2N1C(=O)NCc1ccccc1 [Compound 73] | – | – | – | – | – | – | GI50 [1, 11]: 9.2 ± 0.8 µM; GI50 [7]: 15.8 ± 2.6 µM
19 | COC(=O)N1C2CN(CCc3ccc(F)cc3)C(=O)C(Cc3cccc4ccccc34)N2C(=O)CN1Cc1ccccc1 (stereo not drawn) [Compound 1] | – | – | – | – | – | – | IC50 [9, 18]: 12.8 µM
20 | CN(C)c1cc(F)c(F)cc1CN1C[C@H]2N(C(=O)CN(C)N2C(=O)NCc2ccccc2)[C@@H](Cc2ccc(OP(=O)([O-])[O-])cc2)C1=O.[Na+].[Na+] [Compound 10] | 2290 µg/mL | 2270 µg/mL | 2330 µg/mL | 2030 µg/mL | 2060 µg/mL | 2030 µg/mL | –
21 | C=CCN1CC(=O)N2[C@@H](Cc3ccc(OP(=O)([O-])[O-])cc3)C(=O)N(Cc3ccc(F)cc3F)C[C@@H]2N1C(=O)NCc1ccccc1.[Na+].[Na+] [Compound 8] | 671 µg/mL | 775 µg/mL | 921 µg/mL | 2300 µg/mL | 2320 µg/mL | 2270 µg/mL | –
22 | C=CCN1CC(=O)N2[C@@H](Cc3ccc(OP(=O)(O)O)cc3)C(=O)N(Cc3cccc4c3OCCN4C)C[C@@H]2N1C(=O)NCc1ccccc1 [Compound 169] | – | – | – | – | – | – | IC50 [9, 18]: 1 ± 0.1 µM
23 | CN1CC(=O)N2[C@@H](Cc3ccc(OP(=O)(O)O)cc3)C(=O)N(Cc3cccc4cnn(C)c34)C[C@@H]2N1C(=O)NCc1ccccc1 [Compound 5] | 406 µg/mL (≈ 627 µM) | 532 µg/mL (≈ 821 µM) | 684 µg/mL (≈ 1060 µM) | 1760 µg/mL (≈ 2720 µM) | 1780 µg/mL (≈ 2750 µM) | 1760 µg/mL (≈ 2710 µM) | –
24 | CC1=C(CC(=O)O)c2cc(F)ccc2/C1=C\c1ccc([S+](C)[O-])cc1 (stereo not drawn) [Sulindac] | – | – | – | – | – | – | Polyp Number (Mean ± S.D.) Colon ([8]; 160 ppm): 0.5 ± 0.5; Polyp Number (Mean ± S.D.) Small Intestine ([8]; 160 ppm): 48.0 ± 20.7; Polyp Number (Mean ± S.D.) Total ([8]; 160 ppm): 48.5 ± 20.9; % Inhibition vs. VH ([8]; 160 ppm): 28%

— patent US7932384B2, “Reverse-turn mimetics and method relating thereto” (Choongwae Pharma Corporation, priority 2001, dated 2011)
